{"source": "paper PMC11930985", "about": "(Nature Communications, 2025)", "key": {"[1]": {"system": "pSTAT5 Y694", "test": "CyTOF maximal inhibition in Undefined/Immature Myeloid cells: pSTAT5", "type": "in vivo, human", "source_text": "(§1) Pharmacodynamic endpoints included the measurement of inhibition of pAXL, pERK, pAKT, pS6 and pSTAT1/3/5 in blast cells (defined as cells with abnormal surface marker expression as compared to healthy donor peripheral blood mononuclear cells and undefined/immature myeloid cells (defined as cells carrying myeloid markers but lacking distinguishing terminal differentiation markers). Mass cytometry time of flight (CyTOF) was used for the determination of the pharmacodynamic markers using a previously validated and tested panel of mass-tagged antibodies[39],[40]. The antibodies in the panel are listed in Supplementary Table 5. Briefly, fixed leukocytes from peripheral blood were barcoded using a 20-plex metal barcoding kit (Standard Biotools, Cell-ID 201060) according to manufacturer’s protocol, allowing all the samples from a single individual to be stained and analysed in parallel. All analysis runs included barcoded peripheral blood mononuclear cells (PBMCs) from at least one healthy donor and an identical barcoded reference sample (mix of PBMCs from six healthy donors). […]\n(§2) For each population, marker, and sample, the 95th percentile of the non-transformed expression values was calculated. […]"}, "[2]": {"system": "pAKT S473", "test": "CyTOF maximal inhibition in Undefined/Immature Myeloid cells: pAKT", "type": "in vivo, human", "source_text": "as §1, §2"}, "[3]": {"target": "Flt1", "set-up": "method as in Investigator's Brochure (IB) version 5.0", "conditions": "ref Investigator's Brochure (IB) version 5.0; cited from earlier work"}, "[4]": {"target": "Yes", "set-up": "method as in Investigator's Brochure (IB) version 5.0", "conditions": "ref Investigator's Brochure (IB) version 5.0; cited from earlier work"}, "[5]": {"system": "Ret", "set-up": "method as in Investigator's Brochure (IB) version 5.0", "conditions": "ref Investigator's Brochure (IB) version 5.0; cited from earlier work"}, "[6]": {"system": "Flt4", "set-up": "method as in Investigator's Brochure (IB) version 5.0", "conditions": "ref Investigator's Brochure (IB) version 5.0; cited from earlier work"}, "[7]": {"system": "Yes", "set-up": "method as in Investigator's Brochure (IB) version 5.0", "conditions": "ref Investigator's Brochure (IB) version 5.0; cited from earlier work", "remark": "listed apart in the source"}, "[8]": {"system": "Flt1", "set-up": "method as in Investigator's Brochure (IB) version 5.0", "conditions": "ref Investigator's Brochure (IB) version 5.0; cited from earlier work", "remark": "listed apart in the source"}, "[9]": {"system": "OCI-AML5 xenograft", "set-up": "method as in Investigator's Brochure (IB) version 5.0", "conditions": "ref Investigator's Brochure (IB) version 5.0; cited from earlier work"}, "[10]": {"system": "CYP3A4/5", "set-up": "method as in Investigator's Brochure (IB) version 5.0", "conditions": "ref Investigator's Brochure (IB) version 5.0; cited from earlier work"}, "[11]": {"system": "monkeys", "set-up": "method as in Investigator's Brochure (IB) version 5.0", "conditions": "ref Investigator's Brochure (IB) version 5.0, cited from earlier work"}}, "note": "“And” between values parts separate entries of the source, which are not always exact repeats. Identical values can stand only once.", "data": [{"smiles": "Nc1nc(Nc2ccc3c(c2)CC[C@@H](N2CCCC2)CC3)nn1-c1cc2c(nn1)-c1ccccc1CCC2", "note": "[Bemcentinib]", "values": [{"measurement": "EC50", "setting": "[1]; Homo sapiens, Undefined/Immature Myeloid cells, N = 12 patients, read-out: EC50 (± standard error), pSTAT5 Y694 inhibition", "result": "0.0913 ± 0.0014", "unit": "µg/mL"}, {"measurement": "Maximum inhibition (percent) pSTAT5 (Y694)", "setting": "[1]; Supplementary Figure 1b, individual patients", "result": "86.7% and 72.9% and 100% and 27.9% and 21.4% and 51.2% and 0% and 36% and 58.4%"}, {"measurement": "EC50", "setting": "[2]; Homo sapiens, Undefined/Immature Myeloid cells, N = 12 patients, read-out: EC50 (± standard error), pAKT S473 inhibition", "result": 0.162, "unit": "µg/mL"}, {"measurement": "Maximum inhibition (percent) pAKT (S473)", "setting": "[2]; Supplementary Figure 1d, individual patients", "result": "59.9% and 67.4% and 81.4% and 10.2% and 98.8% and 2.4% and 56.3% and 0% and 5.8% and 33.9% and 39.1% and 94.9%"}, {"measurement": "Kd", "setting": "[3]", "result": 400, "unit": "nM"}, {"measurement": "Kd", "setting": "[4]", "result": 810, "unit": "nM"}, {"measurement": "IC50", "setting": "[5]", "result": 38, "unit": "nM"}, {"measurement": "IC50", "setting": "[6]", "result": 41, "unit": "nM"}, {"measurement": "IC50", "setting": "[7]", "result": 43, "unit": "nM"}, {"measurement": "IC50", "setting": "[8]", "result": "> 1000", "unit": "nM"}, {"measurement": "Tumor growth", "setting": "[9]", "result": "inhibited"}, {"measurement": "Substrate and time-dependent inhibition of CYP3A4/5 activity", "setting": "[10]", "result": "modest"}, {"measurement": "QTc change compared to vehicle control and pre-dose values", "setting": "[11]; 7.5 mg/kg and 15 mg/kg single oral", "result": "below 10%"}, {"measurement": "Heart rate", "setting": "[11]; 7.5 mg/kg – 60 mg/kg single oral", "result": "recoverable, non-adverse decreases"}, {"measurement": "Magnitude of the QTc effect", "setting": "[11]; highest dose level (60 mg/kg single oral)", "result": 17, "unit": "%"}]}]}
